Data taken from patent US20090247636A1, “AGENT FOR SUPPRESSION OF GASTRIC EMPTYING COMPRISING 4-HYDROXYISOLEUCINE” (AJINOMOTO CO., INC.,, priority 2006, published 2009).

Legend:
[1] = test system: gastric emptying; assay: Gastric emptying-suppressive action (phenol red test meal); assay type: in vivo, Sprague Dawley rats; details: 500 mg/kg oral, test meal 1 hour later, stomach isolated after 90 minutes, vs vehicle, p<0.05, FIG. 1
Protocol: Male Sprague Dawley rats (12 weeks of age, Charles River Laboratories Japan Inc.) (n=5) were used. After fasting for 20 hours, distilled water for injection (5 mL/kg) was orally administered to a vehicle group and 4-hydroxyisoleucine (500 mg/5 mL/kg) was orally administered to a 4-hydroxyisoleucine administration group. One hour later, a test meal (1.5% methylcellulose, 0.05% phenol red, 1.5 ml) was orally administered. After 90 minutes, the stomach was isolated under an ether anesthesia, the gastric contents were recovered and the remaining phenol red was quantified. A control group was prepared. After fasting for 20 hours, a test meal (1.5% methylcellulose, 0.05% phenol red, 1.5 mL) was orally administered. Immediately after administration of the test meal, the stomach was isolated under an ether anesthesia, the gastric contents were recovered and the remaining phenol red was quantified. The gastric emptying was calculated by the following formula.
Gastric emptying (%)=(1-phenol red amount of each individual/average phenol red amount of control group*)×100*:test meal alone was administered, n=2
The difference between the 4-hydroxyisoleucine (HIL) administration group and the distilled water for injection (vehicle) administration group was detected according to Student's t test, and p<0.05 was judged as significant.

[2] = test system: insulin secretion; details: in vitro; cited from earlier work
[3] = test system: body weight gain; details: high-fat diet-fed mouse; cited from earlier work
[4] = test system: food intake; assay: Food intake suppressive action (cumulative feed intake); assay type: in vivo, Wistar rats; details: 500 mg/kg oral after fasting for 9 hours, vs vehicle, p<0.05, FIG. 2
Protocol: Male Wistar rats (7 weeks of age, Charles River Laboratories Japan Inc.) (n=5) were used. After fasting for 9 hours, distilled water for injection (5 mL/kg) or 4-hydroxyisoleucine (50, 150, 500 mg/5 mL/kg) was orally administered at 18:00. Immediately thereafter, feeding was started. The cumulative feed intake was measured at 30 min, 1 hr, 3 hr and 16 hr after the administration. […] The difference between the 4-hydroxyisoleucine administration group and the distilled water for injection (vehicle) administration group was detected according to Student's t test, and p<0.05 was judged as significant.

[5] = in vivo; cited from earlier work

C[C@@H]([C@H](C)O)[C@H](N)C(=O)O [4-hydroxyisoleucine]
Gastric emptying (%) [1]: significantly suppressed
insulin secretagogue action [2]: shows an insulin secretagogue action
suppression of body weight gain [3]: does not show such action
food intake (cumulative feed intake) [4]: significantly suppressed
antidiabetic action [5]: an antidiabetic action
